# From ChEMBL document CHEMBL1201862, “PubChem BioAssay data set” (2004)
#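 Dose response: 5 concentrations. Exposure: 48 h. Format: 96-well plates. Endpoint: linear interpolation; highest concentration if not reached. Abbreviation: GI50, concentration required for 50% inhibition of growth.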 Active and inactive are the calls of the source. Cut-off read from the data, not from the text of the source: active = GI50 up to about 1.1 µM and inactive = higher.
# Tests used:
# Assay in all cases: growth of human tumour cells (NCI), 48 h
# [1] = tested on: SR
# [2] = tested on: LOX IMVI
# [3] = tested on: 786-0
# [4] = tested on: HL-60
# [5] = tested on: NCI-H226
# [6] = tested on: TK-10
# [7] = tested on: MDA-MB-231
# [8] = tested on: OVCAR-4
# [9] = tested on: HT-29
# [10] = tested on: SN12C
# [11] = tested on: CAKI-1
# [12] = tested on: IGROV-1
# [13] = tested on: A498
# [14] = tested on: SK-MEL-5
# [15] = tested on: U-251
# [16] = tested on: SK-MEL-2
# [17] = tested on: NCI-H23
# [18] = tested on: PC-3
# [19] = tested on: UO-31
# [20] = tested on: COLO 205
# [21] = tested on: MDA-N
# [22] = tested on: Malme-3M
# [23] = tested on: SNB-75
# [24] = tested on: NCI-H522
# [25] = tested on: HCT-15
# [26] = tested on: HCT-116
# [27] = tested on: UACC-257
# [28] = tested on: M14
# [29] = tested on: SNB-19
# [30] = tested on: NCI-H460
# [31] = tested on: CCRF-CEM
# [32] = tested on: T47D
# [33] = tested on: SK-MEL-28
# [34] = tested on: OVCAR-3
# [35] = tested on: K562
# [36] = tested on: EKVX
# [37] = tested on: HOP-62
# [38] = tested on: BT-549
# [39] = tested on: SK-OV-3
# [40] = tested on: NCI/ADR-RES
# [41] = tested on: UACC-62
# [42] = tested on: MDA-MB-435
# [43] = tested on: OVCAR-5
# [44] = tested on: DU-145
# [45] = tested on: KM12
# [46] = tested on: HOP-92
# [47] = tested on: A549
# [48] = tested on: RPMI-8226
# [49] = tested on: Hs-578T
# [50] = tested on: MCF7
# [51] = tested on: OVCAR-8
# [52] = tested on: SF-268
# [53] = tested on: SW-620
# [54] = tested on: HCC 2998
# [55] = tested on: SF-295
# [56] = tested on: SF-539
# [57] = tested on: MOLT-4
# [58] = tested on: ACHN
# [59] = tested on: RXF 393
structure (smiles),measurement,setting,value
O=C(CC(c1ccccc1)C1C(=O)NC(=S)NC1=O)c1ccc([N+](=O)[O-])cc1 (stereo not given),GI50,[1],41.1 µM (inactive)
same,GI50,[2],63.4 µM (inactive)
same,GI50,[3],> 100 µM (inactive)
same,GI50,[4],> 100 µM (inactive)
same,GI50,[5],> 100 µM (inactive)
same,GI50,[6],> 100 µM (inactive)
same,GI50,[7],> 100 µM (inactive)
same,GI50,[8],> 100 µM (inactive)
same,GI50,[9],> 100 µM (inactive)
same,GI50,[10],> 100 µM (inactive)
same,GI50,[11],22.4 µM (inactive)
same,GI50,[12],> 100 µM (inactive)
same,GI50,[13],> 100 µM (inactive)
same,GI50,[14],> 100 µM (inactive)
same,GI50,[15],> 100 µM (inactive)
same,GI50,[16],> 100 µM (inactive)
same,GI50,[17],> 100 µM (inactive)
same,GI50,[18],> 100 µM (inactive)
same,GI50,[19],> 100 µM (inactive)
same,GI50,[20],> 100 µM (inactive)
same,GI50,[21],> 100 µM (inactive)
same,GI50,[22],> 100 µM (inactive)
same,GI50,[23],> 100 µM (inactive)
same,GI50,[24],> 100 µM (inactive)
same,GI50,[25],> 100 µM
same,GI50,[26],76.6 µM (inactive)
same,GI50,[27],> 100 µM (inactive)
same,GI50,[28],> 100 µM (inactive)
same,GI50,[29],> 100 µM (inactive)
same,GI50,[30],> 100 µM (inactive)
same,GI50,[31],> 100 µM (inactive)
same,GI50,[32],17.8 µM (inactive)
same,GI50,[33],> 100 µM (inactive)
same,GI50,[34],> 100 µM (inactive)
same,GI50,[35],> 100 µM (inactive)
same,GI50,[36],31.8 µM (inactive)
same,GI50,[37],> 100 µM (inactive)
same,GI50,[38],> 100 µM (inactive)
same,GI50,[39],> 100 µM (inactive)
same,GI50,[40],> 100 µM (inactive)
same,GI50,[41],> 100 µM (inactive)
same,GI50,[42],> 100 µM (inactive)
same,GI50,[43],> 100 µM (inactive)
same,GI50,[44],> 100 µM (inactive)
same,GI50,[45],65.2 µM (inactive)
same,GI50,[46],> 100 µM (inactive)
same,GI50,[47],> 100 µM (inactive)
same,GI50,[48],45.9 µM (inactive)
same,GI50,[49],> 100 µM (inactive)
same,GI50,[50],17.7 µM (inactive)
same,GI50,[51],> 100 µM (inactive)
same,GI50,[52],72.8 µM (inactive)
same,GI50,[53],> 100 µM (inactive)
same,GI50,[54],31.6 µM (inactive)
same,GI50,[55],> 100 µM (inactive)
same,GI50,[56],> 100 µM (inactive)
same,GI50,[57],> 100 µM (inactive)
same,GI50,[58],> 100 µM (inactive)
O=C1c2sc(-c3ccc(Cl)cc3)cc2-n2cccc21,GI50,[1],> 100 µM (inactive)
same,GI50,[2],> 100 µM (inactive)
same,GI50,[3],> 100 µM (inactive)
same,GI50,[5],> 100 µM (inactive)
same,GI50,[6],> 100 µM (inactive)
same,GI50,[7],> 100 µM (inactive)
same,GI50,[8],> 100 µM (inactive)
same,GI50,[9],> 100 µM (inactive)
same,GI50,[10],> 100 µM (inactive)
same,GI50,[11],> 100 µM (inactive)
same,GI50,[12],> 100 µM (inactive)
same,GI50,[13],> 100 µM (inactive)
same,GI50,[14],> 100 µM (inactive)
same,GI50,[15],> 100 µM (inactive)
same,GI50,[16],> 100 µM (inactive)
same,GI50,[18],> 100 µM (inactive)
same,GI50,[19],> 100 µM (inactive)
same,GI50,[20],> 100 µM (inactive)
same,GI50,[21],> 100 µM (inactive)
same,GI50,[22],> 100 µM (inactive)
same,GI50,[59],> 100 µM (inactive)
same,GI50,[23],> 100 µM (inactive)
same,GI50,[24],> 100 µM (inactive)
same,GI50,[25],> 100 µM
same,GI50,[26],> 100 µM (inactive)
same,GI50,[27],> 100 µM (inactive)
same,GI50,[28],> 100 µM (inactive)
same,GI50,[29],> 100 µM (inactive)
same,GI50,[30],> 100 µM (inactive)
same,GI50,[31],> 100 µM (inactive)
same,GI50,[32],> 100 µM (inactive)
same,GI50,[33],> 100 µM (inactive)
same,GI50,[34],> 100 µM (inactive)
same,GI50,[35],> 100 µM (inactive)
same,GI50,[36],> 100 µM (inactive)
same,GI50,[37],> 100 µM (inactive)
same,GI50,[38],> 100 µM (inactive)
same,GI50,[39],> 100 µM (inactive)
same,GI50,[40],> 100 µM (inactive)
same,GI50,[41],> 100 µM (inactive)
same,GI50,[42],> 100 µM (inactive)
same,GI50,[43],> 100 µM (inactive)
same,GI50,[44],> 100 µM (inactive)
same,GI50,[45],> 100 µM (inactive)
same,GI50,[47],> 100 µM (inactive)
same,GI50,[48],> 100 µM (inactive)
same,GI50,[49],> 100 µM (inactive)
same,GI50,[50],> 100 µM (inactive)
same,GI50,[51],> 100 µM (inactive)
same,GI50,[52],> 100 µM (inactive)
same,GI50,[53],> 100 µM (inactive)
same,GI50,[54],> 100 µM (inactive)
same,GI50,[55],> 100 µM (inactive)
same,GI50,[57],> 100 µM (inactive)
same,GI50,[58],> 100 µM (inactive)
Cc1cc(O)nc2c3c(ccc12)OC(C)(C)C=C3,GI50,[1],2.44 µM (inactive)
same,GI50,[3],6.7 µM (inactive)
same,GI50,[4],0.43 µM (active)
same,GI50,[6],> 100 µM (inactive)
same,GI50,[7],5.78 µM (inactive)
same,GI50,[8],18.6 µM (inactive)
same,GI50,[9],5.66 µM (inactive)
same,GI50,[10],5.98 µM (inactive)
same,GI50,[11],5.93 µM (inactive)
same,GI50,[12],6.44 µM (inactive)
same,GI50,[13],10.2 µM (inactive)
same,GI50,[14],3.82 µM (inactive)
same,GI50,[15],3.11 µM (inactive)
same,GI50,[16],10.2 µM (inactive)
same,GI50,[17],5.46 µM (inactive)
same,GI50,[18],5.9 µM (inactive)
same,GI50,[19],8.18 µM (inactive)
same,GI50,[20],2.89 µM (inactive)
same,GI50,[21],2.08 µM (inactive)
same,GI50,[22],13.2 µM (inactive)
same,GI50,[59],5.25 µM (inactive)
same,GI50,[23],5 µM (inactive)
same,GI50,[24],6.67 µM (inactive)
same,GI50,[25],4.85 µM
same,GI50,[26],4.45 µM (inactive)
same,GI50,[27],> 25.3 µM (inactive)
same,GI50,[28],5.53 µM (inactive)
same,GI50,[29],4.55 µM (inactive)
same,GI50,[30],3.95 µM (inactive)
same,GI50,[31],3.71 µM (inactive)
same,GI50,[32],> 23.3 µM (inactive)
same,GI50,[33],> 23.2 µM (inactive)
same,GI50,[34],4.28 µM (inactive)
same,GI50,[35],4.22 µM (inactive)
same,GI50,[36],14.9 µM (inactive)
same,GI50,[37],8.2 µM (inactive)
same,GI50,[38],36.6 µM (inactive)
same,GI50,[39],11.3 µM (inactive)
same,GI50,[40],3.99 µM (inactive)
same,GI50,[41],5.01 µM (inactive)
same,GI50,[42],1.82 µM (inactive)
same,GI50,[43],9.62 µM (inactive)
same,GI50,[44],3.58 µM (inactive)
same,GI50,[45],4.28 µM (inactive)
same,GI50,[46],> 100 µM (inactive)
same,GI50,[47],7.33 µM (inactive)
same,GI50,[48],4.47 µM (inactive)
same,GI50,[49],3.52 µM (inactive)
same,GI50,[50],3.48 µM (inactive)
same,GI50,[51],7.59 µM (inactive)
same,GI50,[52],6.7 µM (inactive)
same,GI50,[53],3.61 µM (inactive)
same,GI50,[54],9.55 µM (inactive)
same,GI50,[55],10.3 µM (inactive)
same,GI50,[56],3.27 µM (inactive)
same,GI50,[57],5.16 µM (inactive)
same,GI50,[58],> 31.6 µM (inactive)
